Data from article PMC6108126, “Purification, characterization and immunogenicity assessment of glutaminase free L-asparaginase from Streptomyces brollosae NEAE-115” (BMC Pharmacology & Toxicology, 2018).

B1: commercially available L-asparaginase from E. coli (Escherichia coli K-12) (protein)
chain: LPNITILATGGTIAGGGDSATKSNYTVGKVGVENLVNAVPQLKDIANVKGEQVVNIGSQDMNDNVWLTLAKKINTDCDKTDGFVITHGTDTMEETAYFLDLTVKCDKPVVMVGAMRPSTSMSADGPFNLYNAVVTAADKASANRGVLVVMNDTVLDGRDVTKTNTTDVATFKSVNYGPLGYIHNGKIDYQRTPARKHTSDTPFDVSKLNELPKVGIVYNYANASDLPAKALVDAGYDGIVSAGVGNGNLYKSVFDTLATAAKTGTAVVRSSRVPTGATTQDAEVDDAKYGFVASGTLNPQKARVLLQLALTQTKDPQQIQQIFNQY

Columns and labels:
[1] = test system: T1, L-asparaginase from Streptomyces brollosae NEAE-115; settings: 0.05 M Tris-HCl, pH 8.6, 37 °C (standard assay); 1-10 mM substrate
T1 construct: gene L-asparagine amidohydrolase

purified protein = substrate: NC(=O)C[C@H](N)C(=O)O; assay: purified protein; settings: 0.05 M Tris-HCl, pH 8.6, 37 °C (standard assay), 1-10 mM substrate

| Molecule | Km [1] [µM] | Km (purified protein) [µM] |
| --- | --- | --- |
| NC(=O)C[C@H](N)C(=O)O [L-asparagine] | 2140 | – |
| B1 | – | 176 |
